Laboratory results: US20240041042A1, “1-(PYRIDYL)-5-AZINYLPYRAZOLE DERIVATIVES, AND THEIR USE FOR CONTROL OF UNDESIRED PLANT GROWTH” (Bayer Aktiengesellschaft, priority 2020, published 2024)
Read-outs that look alike come from different tables or passages of the source.

Columns and labels:
Type in all cases: in vivo
[1] = tested on: Matricaria inodora (MATIN); experiment: Pre-emergence herbicidal action against MATIN
Outline: (§1)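 Seeds sown in pots and covered with soil; WP or EC formulations sprayed onto the soil surface at 600 l/ha water with 0.5% additive, at 320 g/ha or lower. Greenhouse growth for about 3 weeks, then visual scoring as % effect against untreated controls (100% = plants dead).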

Avena fatua (AVEFA) [2] = experiment: Pre-emergence herbicidal action against AVEFA; settings: 320 g/ha, visual scoring after about 3 weeks vs untreated controls
Outline: as §1

[3] = tested on: Echinochloa crus-galli (ECHCG); experiment: Pre-emergence herbicidal action against ECHCG
Outline: as §1

[4] = tested on: Amaranthus retroflexus (AMARE); experiment: Post-emergence herbicidal action against AMARE
Outline: (§2)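 Post-emergence greenhouse spray, one-leaf stage, 600 l/ha water plus 0.5% additive; WP or EC formulations; application rates 320 g/ha or lower. Visual % damage vs untreated controls at ~3 weeks.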

[5] = tested on: Pharbitis purpurea (PHBPU); experiment: Pre-emergence herbicidal action against PHBPU; settings: dosage 320 g/ha
Outline: as §1

[6] = tested on: Alopecurus myosuroides (ALOMY); experiment: Post-emergence herbicidal action against ALOMY; settings: visual rating about 3 weeks after treatment vs untreated controls (100% = plants have died, 0% = like control plants)
Outline: as §2

[7] = tested on: Verconica persica (VERPE); experiment: Post-emergence herbicidal action against VERPE
Outline: as §2

[8] = tested on: Pharbitis purpurea (PHBPU); experiment: Post-emergence herbicidal action against PHBPU; settings: dosage 320 g/ha
Outline: as §2

[9] = tested on: Echinochloa crus-galli (ECHCG); experiment: Post-emergence herbicidal action against ECHCG
Outline: as §2

Zea mays (ZEAMX) [10] = settings: pre-emergence, crop plant compatibility, in comparison to untreated controls
Excerpt: Seeds of monocotyledonous and dicotyledonous weed plants and crop plants are placed in plastic or organic planting pots and covered with soil. The compounds of the invention, formulated in the form of wettable powders (WP) or as emulsion concentrates (EC), are then applied to the surface of the covering soil as aqueous suspension or emulsion with addition of 0.5% additive at a water application rate equivalent to 600 l/ha. After the treatment, the pots are placed in a greenhouse and kept under good growth conditions for the trial plants. After about 3 weeks, the effect of the preparations is scored visually in comparison with untreated controls as percentages. For example, 100% activity=the plants have died, 0% activity=like control plants.
The observed effects on selected crop plants are reported here in comparison to the untreated controls (values in %). The appendices “a” “b” and “c” give differentiation by dosage used with otherwise the same crop plants tested.

Lolium rigidum (LOLRI) [11] = experiment: Post-emergence herbicidal action against LOLRI; settings: dosage 320 g/ha
Outline: as §2

Avena fatua (AVEFA) [12] = experiment: Post-emergence herbicidal action against AVEFA; settings: 320 g/ha, visual rating about 3 weeks after treatment
Outline: as §2

Viola tricolor (VIOTR) [13] = experiment: Pre-emergence herbicidal action against VIOTR
Outline: as §1

[14] = tested on: Polygonum convolvulus (POLCO); experiment: Post-emergence herbicidal action against POLCO; settings: dosage 320 g/ha
Outline: as §2

[15] = tested on: Polygonum convolvulus (POLCO); experiment: Pre-emergence herbicidal action against POLCO
Outline: as §1

Oryza sativa (ORYSA) = settings: crop plant compatibility
Outline: (§3)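 Foliar application at the one-leaf stage: WP/EC formulation, 0.5% additive, 600 l/ha water. Greenhouse-grown in sandy loam. Endpoint is visual % injury relative to untreated controls at about 3 weeks.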

Zea mays (ZEAMX) [16] = settings: for Post-emergence action against ZEAMX in %: crop plant compatibility, effect vs untreated controls
Outline: as §3

[17] = tested on: Verconica persica (VERPE); experiment: Pre-emergence herbicidal action against VERPE
Outline: as §1

[18] = tested on: Amaranthus retroflexus (AMARE); experiment: Pre-emergence herbicidal action against AMARE; settings: visual scoring after about 3 weeks vs untreated controls
Outline: as §1

[19] = tested on: Abutilon theophrasti (ABUTH); experiment: Post-emergence herbicidal action against ABUTH; settings: visual rating about 3 weeks after treatment vs untreated controls (100% = plants have died, 0% = like control plants)
Outline: as §2

Lolium rigidum (LOLRI) [20] = experiment: Pre-emergence herbicidal action against LOLRI; settings: dosage 320 g/ha
Outline: as §1

[21] = tested on: Alopecurus myosuroides (ALOMY); experiment: Pre-emergence herbicidal action against ALOMY; settings: scored visually after about 3 weeks, 100% = plants have died
Outline: as §1

Setaria viridis (SETVI) [22] = experiment: Pre-emergence herbicidal action against SETVI
Outline: as §1

[23] = tested on: Matricaria inodora (MATIN); experiment: Post-emergence herbicidal action against MATIN
Outline: as §2

Viola tricolor (VIOTR) [24] = experiment: Post-emergence herbicidal action against VIOTR
Outline: as §2

Setaria viridis (SETVI) [25] = experiment: Post-emergence herbicidal action against SETVI
Outline: as §2

[26] = tested on: Triticum aestivum (TRZAS); settings: crop plant compatibility, 80 g/ha, effect vs untreated controls
Outline: as §3

[27] = 80 g/ha, visual rating about 3 weeks after treatment vs untreated controls (100% = plants have died, 0% = like control plants)
[28] = 320 g/ha, visual rating about 3 weeks after treatment
[29] = 80 g/ha, effect in comparison to untreated controls

Row | Pre-emergence action against ZEAMX in % (Zea mays (ZEAMX) [10]; 80 g/ha) [%] | Post-emergence action against ORYSA in % (Oryza sativa (ORYSA); [29]) [%] | Post-emergence action against ZEAMX in % (Zea mays (ZEAMX) [16]; 80 g/ha) [%] | SMILES | Pre-emergence action against MATIN in % ([1]; dosage 320 g/ha) [%] | Pre-emergence action against ECHCG in % ([3]; dosage 320 g/ha) [%] | Post-emergence action against AMARE in % [4, 27] [%] | Post-emergence action against AMARE in % [4, 28] [%] | Pre-emergence action against PHBPU in % [5] [%] | Post-emergence action against VERPE in % ([7]; 320 g/ha, VERPE) [%] | Post-emergence action against PHBPU in % [8] [%] | Post-emergence action against ECHCG in % ([9]; dosage 320 g/ha) [%] | Post-emergence action against POLCO in % [14] [%] | Pre-emergence action against POLCO in % ([15]; dosage 320 g/ha) [%] | Pre-emergence action against AMARE in % ([18]; 80 g/ha) [%] | Pre-emergence action against AMARE in % ([18]; 320 g/ha) [%] | Pre-emergence action against LOLRI in % (Lolium rigidum (LOLRI) [20]) [%] | Pre-emergence action against ALOMY ([21]; 320 g/ha) [%] | Pre-emergence action against SETVI in % (Setaria viridis (SETVI) [22]; dosage 320 g/ha) [%] | Post-emergence action against MATIN in % ([23]; dosage 320 g/ha) [%] | Post-emergence action against SETVI in % (Setaria viridis (SETVI) [25]; dosage 320 g/ha) [%] | also measured
1 | 20 | 20 | 10 | O=C(O)COc1nn(-c2nc(F)ccc2F)c(-c2ccc(F)nc2)c1Br [Example I-334] | 100 | 90 | 80 | 80 | 90 | 80 | 80 | 90 | 80 | 90 | 90 | 100 | 90 | 90 | 90 | 80 |  | Pre-emergence action against MATIN in % ([1]; dosage 80 g/ha): 80%; Pre-emergence action against AVEFA in % (Avena fatua (AVEFA) [2]): 90%; Pre-emergence action against ECHCG in % ([3]; dosage 80 g/ha): 80%; Post-emergence action against ALOMY in % ([6]; 320 g/ha): 90%; Post-emergence action against ECHCG in % ([9]; dosage 80 g/ha): 80%; Post-emergence action against LOLRI in % (Lolium rigidum (LOLRI) [11]): 90%; Post-emergence action against AVEFA in % (Avena fatua (AVEFA) [12]): 80%; Pre-emergence action against VIOTR in % (Viola tricolor (VIOTR) [13]; 320 g/ha, Viola tricolor): 90%; Post-emergence action against ZEAMX in % (Zea mays (ZEAMX) [16]; 320 g/ha): 20%; Pre-emergence action against VERPE in % ([17]; dosage 320 g/ha): 80%; Post-emergence action against ABUTH in % ([19]; 80 g/ha): 80%; Post-emergence action against ABUTH in % ([19]; 320 g/ha): 80%; Pre-emergence action against ALOMY ([21]; 80 g/ha): 80%; Pre-emergence action against SETVI in % (Setaria viridis (SETVI) [22]; dosage 80 g/ha): 90%; Post-emergence action against VIOTR in % (Viola tricolor (VIOTR) [24]; 80 g/ha): 80%; Post-emergence action against VIOTR in % (Viola tricolor (VIOTR) [24]; 320 g/ha): 80%
2 | 0 |  | 0 | CCOC(=O)COc1nn(-c2ccccn2)c(-c2ccc(F)nc2)c1F [Example I-305] | 90 | 90 | 80 | 90 |  | 90 | 90 | 90 | 80 |  | 80 | 90 | 90 | 90 | 90 | 80 | 90 | Pre-emergence action against MATIN in % ([1]; dosage 80 g/ha): 80%; Post-emergence action against ALOMY in % ([6]; 320 g/ha): 100%; Post-emergence action against ECHCG in % ([9]; dosage 80 g/ha): 90%; Post-emergence action against LOLRI in % (Lolium rigidum (LOLRI) [11]): 90%; Post-emergence action against AVEFA in % (Avena fatua (AVEFA) [12]): 80%
3 | 0 | 0 | 0 | O=C(O)COc1nn(-c2ccccn2)c(-c2ccc(F)nc2)c1F [Example I-373] | 90 | 90 | 80 | 80 |  | 90 | 80 | 90 | 80 | 90 |  | 90 | 80 | 90 | 80 | 90 | 90 | Pre-emergence action against ZEAMX in % (Zea mays (ZEAMX) [10]; 320 g/ha): 0%; Post-emergence action against ABUTH in % ([19]; 320 g/ha): 80%
4 | 20 | 20 |  | CCOC(=O)COc1nn(-c2ncccc2C(F)(F)F)c(-c2cncc(F)c2)c1Br [Example I-202] | 80 | 90 |  | 80 | 90 | 80 | 90 | 90 | 80 | 90 |  | 90 |  | 80 | 90 |  | 80 | Post-emergence action against ECHCG in % ([9]; dosage 80 g/ha): 80%; Pre-emergence action against VIOTR in % (Viola tricolor (VIOTR) [13]; 320 g/ha, Viola tricolor): 100%; Pre-emergence action against VIOTR in % (Viola tricolor (VIOTR) [13]; dosage 80 g/ha): 90%; Post-emergence action against TRZAS in % [26]: 20%; Pre-emergence action against VERPE in % ([17]; dosage 80 g/ha): 80%; Pre-emergence action against VERPE in % ([17]; dosage 320 g/ha): 90%; Post-emergence action against ABUTH in % ([19]; 320 g/ha): 80%; Post-emergence action against VIOTR in % (Viola tricolor (VIOTR) [24]; 80 g/ha): 80%; Post-emergence action against VIOTR in % (Viola tricolor (VIOTR) [24]; 320 g/ha): 80%
5 | 0 | 20 |  | O=C(COc1nn(-c2ccccn2)c(-c2ccc(F)nc2)c1Br)OCC1CCCO1 (stereo not shown) [Example I-93] | 100 | 100 | 80 |  | 80 |  |  |  |  | 90 | 90 | 100 | 100 | 100 | 100 |  |  | Pre-emergence action against AVEFA in % (Avena fatua (AVEFA) [2]): 90%; Post-emergence action against ALOMY in % ([6]; 80 g/ha): 100%; Post-emergence action against VERPE in % ([7]; dosage 80 g/ha): 80%; Pre-emergence action against VIOTR in % (Viola tricolor (VIOTR) [13]; 320 g/ha, Viola tricolor): 100%; Pre-emergence action against POLCO in % ([15]; dosage 80 g/ha): 90%; Post-emergence action against ORYSA in % (Oryza sativa (ORYSA); 20 g/ha, effect vs untreated controls): 10%; Post-emergence action against ZEAMX in % (crop plant compatibility) (Zea mays (ZEAMX) [16]; 20 g/ha, ZEAMX, effect in comparison to untreated controls): 20%; Pre-emergence action against VERPE in % ([17]; dosage 320 g/ha): 100%; Pre-emergence action against ALOMY ([21]; 80 g/ha): 90%; Post-emergence action against MATIN in % ([23]; dosage 80 g/ha): 80%
6 | 0 |  | 0 | CCOC(=O)COc1nn(-c2ncccc2F)c(-c2ccc(F)nc2)c1F [Example I-354] | 90 | 100 | 80 | 80 |  | 90 | 90 | 100 | 80 | 80 | 80 | 90 |  | 80 | 90 | 80 | 80 | Post-emergence action against SETVI in % (Setaria viridis (SETVI) [25]; dosage 80 g/ha): 80%; Post-emergence action against ALOMY in % ([6]; 320 g/ha): 90%; Post-emergence action against LOLRI in % (Lolium rigidum (LOLRI) [11]): 90%; Post-emergence action against AVEFA in % (Avena fatua (AVEFA) [12]): 80%; Post-emergence action against TRZAS in % [26]: 0%; Post-emergence action against MATIN in % ([23]; dosage 80 g/ha): 80%; Post-emergence action against VIOTR in % (Viola tricolor (VIOTR) [24]; 80 g/ha): 80%; Post-emergence action against VIOTR in % (Viola tricolor (VIOTR) [24]; 320 g/ha): 80%
